Experimental data taken from patent publication US11090319B2, “Therapeutic uses of pharmaceutical compositions comprising cyclic boronic acid ester derivatives” (Melinta Subsidiary Corp., priority 2010, dated 2021).
Like-named read-outs stand apart in the source and are kept apart here.

Legend:
[1] = target: various β-lactamases (bacterial lysates) (Escherichia coli, UniProt A0A649V088); test: biochemical; format: biochemical; details: read-out: AZT IC50 KP1005 CTX-M-14
[2] = target: various β-lactamases (bacterial lysates) (Salmonella typhimurium, UniProt P0A1V8); test: biochemical; format: biochemical; details: AZT IC50 KPX1001 OXA-2
Sequence of various β-lactamases (bacterial lysates) (Salmonella typhimurium, UniProt P0A1V8) (P0A1V8 22-275): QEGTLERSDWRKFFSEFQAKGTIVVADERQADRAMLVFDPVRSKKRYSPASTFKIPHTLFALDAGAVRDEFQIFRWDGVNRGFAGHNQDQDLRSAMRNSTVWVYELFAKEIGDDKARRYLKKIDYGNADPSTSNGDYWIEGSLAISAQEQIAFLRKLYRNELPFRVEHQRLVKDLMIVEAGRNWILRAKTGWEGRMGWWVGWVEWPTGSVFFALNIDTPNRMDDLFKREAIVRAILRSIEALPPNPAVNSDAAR

[3] = target: various β-lactamases (bacterial lysates) (Escherichia coli, UniProt A0A5R8T042); test: biochemical; format: biochemical; details: read-out: AZT IC50 KP1009 CTX-M-15
Sequence of various β-lactamases (bacterial lysates) (Escherichia coli, UniProt A0A5R8T042) (A0A5R8T042 29-291): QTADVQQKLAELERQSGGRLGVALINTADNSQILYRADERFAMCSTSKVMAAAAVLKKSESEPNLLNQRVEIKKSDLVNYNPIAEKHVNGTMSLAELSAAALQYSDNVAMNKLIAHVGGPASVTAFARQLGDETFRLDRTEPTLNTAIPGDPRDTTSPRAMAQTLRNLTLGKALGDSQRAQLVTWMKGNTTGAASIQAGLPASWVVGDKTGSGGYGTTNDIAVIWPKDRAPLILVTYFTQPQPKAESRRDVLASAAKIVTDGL

[4] = target: various β-lactamases (bacterial lysates) (Klebsiella pneumoniae, UniProt Q9F663); test: biochemical; format: biochemical
Sequence of various β-lactamases (bacterial lysates) (Klebsiella pneumoniae, UniProt Q9F663) (Q9F663 whole entry, looked up): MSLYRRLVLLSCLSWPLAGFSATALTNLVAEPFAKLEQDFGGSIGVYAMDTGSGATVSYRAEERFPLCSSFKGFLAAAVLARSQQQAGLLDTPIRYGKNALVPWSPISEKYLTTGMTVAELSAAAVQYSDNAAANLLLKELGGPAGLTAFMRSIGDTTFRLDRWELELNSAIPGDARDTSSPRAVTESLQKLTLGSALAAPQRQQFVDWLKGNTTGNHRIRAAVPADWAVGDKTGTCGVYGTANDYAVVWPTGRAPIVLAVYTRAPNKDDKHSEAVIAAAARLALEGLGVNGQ

[5] = target: various β-lactamases (bacterial lysates) (Pseudomonas aeruginosa, UniProt P14489); test: biochemical; format: biochemical; details: AZT IC50 KP1007 OXA-10
Sequence of various β-lactamases (bacterial lysates) (Pseudomonas aeruginosa, UniProt P14489) (P14489 20-266): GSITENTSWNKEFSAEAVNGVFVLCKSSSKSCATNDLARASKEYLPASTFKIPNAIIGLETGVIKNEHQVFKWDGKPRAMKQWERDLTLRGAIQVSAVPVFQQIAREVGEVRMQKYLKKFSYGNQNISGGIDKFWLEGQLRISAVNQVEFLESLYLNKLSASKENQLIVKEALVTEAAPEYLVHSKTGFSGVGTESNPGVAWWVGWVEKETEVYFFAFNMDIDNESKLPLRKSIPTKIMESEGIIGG

[6] = target: various β-lactamases (bacterial lysates) (Klebsiella pneumoniae, UniProt Q9F663, H272Y); test: biochemical; format: biochemical
Sequence of various β-lactamases (bacterial lysates) (Klebsiella pneumoniae, UniProt Q9F663, H272Y) (Q9F663 whole entry H272Y, looked up): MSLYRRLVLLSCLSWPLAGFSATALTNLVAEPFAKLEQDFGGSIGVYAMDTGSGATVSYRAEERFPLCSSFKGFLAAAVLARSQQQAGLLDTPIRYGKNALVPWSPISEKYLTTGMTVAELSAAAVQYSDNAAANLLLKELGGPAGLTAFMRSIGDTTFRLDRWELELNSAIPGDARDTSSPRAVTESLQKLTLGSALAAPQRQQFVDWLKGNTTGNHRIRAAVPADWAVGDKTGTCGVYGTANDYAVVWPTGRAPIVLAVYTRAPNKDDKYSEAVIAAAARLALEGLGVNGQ

[7] = system: strains expressing class A ESBLs; format: cell-based
Method: Selected β-lactamase inhibitors were also tested for their ability to potentiate the monobactam tigemonam.

[8] = target: various β-lactamases (bacterial lysates) (Escherichia coli, UniProt Q53TY8); test: Inhibition of nitrocefin cleavage by bacterial lysates, Table 11; format: biochemical; details: lysate EC1010 pAmpC (CMY-6), read-out: NCF IC50 EC1010 pAmpC (CMY-6)
Sequence of various β-lactamases (bacterial lysates) (Escherichia coli, UniProt Q53TY8) (Q53TY8 entry or part of it): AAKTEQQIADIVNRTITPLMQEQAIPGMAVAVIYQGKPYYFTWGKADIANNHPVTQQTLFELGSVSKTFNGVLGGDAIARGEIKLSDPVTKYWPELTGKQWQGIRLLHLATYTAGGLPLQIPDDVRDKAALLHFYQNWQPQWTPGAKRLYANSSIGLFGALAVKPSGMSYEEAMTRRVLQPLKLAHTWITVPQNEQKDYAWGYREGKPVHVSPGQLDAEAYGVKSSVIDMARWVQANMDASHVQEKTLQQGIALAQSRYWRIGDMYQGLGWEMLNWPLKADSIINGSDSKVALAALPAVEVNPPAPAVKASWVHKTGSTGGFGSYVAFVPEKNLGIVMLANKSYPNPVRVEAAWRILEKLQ

[9] = lysate KP1004 KPC-2, aztreonam cleavage, read-out: AZT IC50 KP1004 KPC-2 (converted)
[10] = lysate KP1008 KPC-2, aztreonam cleavage, read-out: AZT IC50 KP1008 KPC-2

Sequence of various β-lactamases (bacterial lysates) (Escherichia coli, UniProt A0A649V088) (A0A649V088 29-291): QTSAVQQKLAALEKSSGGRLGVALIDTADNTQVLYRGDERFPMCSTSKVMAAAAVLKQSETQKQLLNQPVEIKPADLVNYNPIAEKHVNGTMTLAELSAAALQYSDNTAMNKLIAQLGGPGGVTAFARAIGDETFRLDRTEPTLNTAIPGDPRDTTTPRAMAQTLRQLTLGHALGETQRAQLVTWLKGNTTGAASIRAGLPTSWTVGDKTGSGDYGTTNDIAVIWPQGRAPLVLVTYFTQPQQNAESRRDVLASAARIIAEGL

Row | SMILES | IC50 [1] | IC50 [2] | IC50 [3] | IC50 ([4]; AZT IC50 KP1004 KPC-2) | IC50 ([4]; AZT IC50 KP1008 KPC-2) | IC50 [5] | IC50 [6] | MPC4 CTX-M-14 KP1005 [7] | MPC4 CTX-M-15 KP1009 [7] | MPC4 SHV-5 ec308 [7] | MPC4 SHV-12 KP1010 [7] | MPC4 SHV-18 KP1012 [7] | MPC4 TEM-10 EC1009 [7] | MPC4 TEM-10 ec302 [7] | MPC4 TEM-26 ec304 [7] | IC50 [4, 9] | IC50 [4, 10] | IC50 [8]
1 | O=C(O)[C@H]1/C(=C/CO)O[C@@H]2CC(=O)N21 [Clavulanic Acid, reference compound] | 0.275 µM | 0.402 µM | 1.24 µM | 3.72 µM | 11.1 µM | 7.43 µM | 7.43 µM | 2.5 µg/mL | 1.25 µg/mL | <=0.6 μg/mL | <=0.6 μg/mL | <=0.6 μg/mL | <=0.6 μg/mL | 2.5 µg/mL | <=0.6 μg/mL | – | – | –
2 | CC(C)(O/N=C(\C(=O)N[C@H]1CC[C@@H](CC(=O)O)OB1O)c1csc(N)n1)C(=O)O [Compound 36, 2-((Z)-1-(2-aminothiazol-4-yl)-2-((3R,6S)-6-(carboxymethyl)-2-hydroxy-1,2-oxaborinan-3-ylamino)-2-oxoethylideneaminooxy)-2-methylpropanoic acid] | < 1.17 µM | > 4.67 µM | < 1.17 µM | – | – | > 4.67 µM | < 1.17 µM | – | – | – | – | – | – | – | – | 1.17 to 4.67 µM | 1.17 to 4.67 µM | > 4.67 µM
3 | O=C(O)C[C@@H]1CC[C@H](NC(=O)c2ccccc2)B(O)O1 [Compound 37, 2-((3R,6S)-3-benzamido-2-hydroxy-1,2-oxaborinan-6-yl)acetic acid] | < 1.8 µM | 1.8 to 7.22 µM | < 1.8 µM | – | – | 1.8 to 7.22 µM | < 1.8 µM | Z (key: X: MPC@4 of less than 2 μg/mL; Y: MPC@4 of 2 μg/mL to 10 μg/mL; Z: MPC@4 of greater than 10 μg/mL) | Z (key: X: MPC@4 of less than 2 μg/mL; Y: MPC@4 of 2 μg/mL to 10 μg/mL; Z: MPC@4 of greater than 10 μg/mL) | Z (key: X: MPC@4 of less than 2 μg/mL; Y: MPC@4 of 2 μg/mL to 10 μg/mL; Z: MPC@4 of greater than 10 μg/mL) | Z (key: X: MPC@4 of less than 2 μg/mL; Y: MPC@4 of 2 μg/mL to 10 μg/mL; Z: MPC@4 of greater than 10 μg/mL) | Z (key: X: MPC@4 of less than 2 μg/mL; Y: MPC@4 of 2 μg/mL to 10 μg/mL; Z: MPC@4 of greater than 10 μg/mL) | Z (key: X: MPC@4 of less than 2 μg/mL; Y: MPC@4 of 2 μg/mL to 10 μg/mL; Z: MPC@4 of greater than 10 μg/mL) | Z (key: X: MPC@4 of less than 2 μg/mL; Y: MPC@4 of 2 μg/mL to 10 μg/mL; Z: MPC@4 of greater than 10 μg/mL) | Z (key: X: MPC@4 of less than 2 μg/mL; Y: MPC@4 of 2 μg/mL to 10 μg/mL; Z: MPC@4 of greater than 10 μg/mL) | < 1.8 µM | < 1.8 µM | –
4 | NCCSCC(=O)N[C@H]1CC[C@@H](CC(=O)O)OB1O [Compound 48, 2-((3R,6S)-3-(2-(2-aminoethylthio)acetamido)-2-hydroxy-1,2-oxaborinan-6-yl)acetic acid] | 1.72 to 6.89 µM | 1.72 to 6.89 µM | > 6.89 µM | – | – | > 6.89 µM | < 1.72 µM | Z (key: X: MPC@4 of less than 2 μg/mL; Y: MPC@4 of 2 μg/mL to 10 μg/mL; Z: MPC@4 of greater than 10 μg/mL) | Z (key: X: MPC@4 of less than 2 μg/mL; Y: MPC@4 of 2 μg/mL to 10 μg/mL; Z: MPC@4 of greater than 10 μg/mL) | Z (key: X: MPC@4 of less than 2 μg/mL; Y: MPC@4 of 2 μg/mL to 10 μg/mL; Z: MPC@4 of greater than 10 μg/mL) | Z (key: X: MPC@4 of less than 2 μg/mL; Y: MPC@4 of 2 μg/mL to 10 μg/mL; Z: MPC@4 of greater than 10 μg/mL) | Z (key: X: MPC@4 of less than 2 μg/mL; Y: MPC@4 of 2 μg/mL to 10 μg/mL; Z: MPC@4 of greater than 10 μg/mL) | Z (key: X: MPC@4 of less than 2 μg/mL; Y: MPC@4 of 2 μg/mL to 10 μg/mL; Z: MPC@4 of greater than 10 μg/mL) | Z (key: X: MPC@4 of less than 2 μg/mL; Y: MPC@4 of 2 μg/mL to 10 μg/mL; Z: MPC@4 of greater than 10 μg/mL) | Z (key: X: MPC@4 of less than 2 μg/mL; Y: MPC@4 of 2 μg/mL to 10 μg/mL; Z: MPC@4 of greater than 10 μg/mL) | < 1.72 µM | 1.72 to 6.89 µM | –
5 | C[C@]1(Cn2ccnn2)[C@H](C(=O)N[C@H]2CC[C@@H](CC(=O)O)OB2O)N2C(=O)C[C@H]2S1(=O)=O [Compound 59, 2-[(3R,6S)-2-hydroxy-3-[(2S,3 S,5R)-3-methyl-4,4,7-trioxo-3-(1H-1,2,3-triazol-1-ylmethyl)-4λ^6-thia-1-azabicyclo[3.2.0]heptane-2-amido]-1,2-oxaborinan-6-yl]acetic acid] | > 4.39 µM | 1.1 to 4.39 µM | > 4.39 µM | – | – | > 4.39 µM | 1.1 to 4.39 µM | – | – | – | – | – | – | – | – | 1.1 to 4.39 µM | < 1.1 µM | –
6 | O=C(O)C[C@@H]1CC[C@H](NC(=O)CCc2nnc(-c3ccccc3)o2)B(O)O1 [Compound 60, 2-((3R,6S)-2-hydroxy-3-(3-(5-phenyl-1,3,4-oxadiazol-2-yl)propanamido)-1,2-oxaborinan-6-yl)acetic acid] | 1.34 to 5.36 µM | 1.34 to 5.36 µM | 1.34 to 5.36 µM | – | – | > 5.36 µM | < 1.34 µM | – | – | – | – | – | – | – | – | < 1.34 µM | < 1.34 µM | –
7 | Nc1cc(CC(=O)N[C@H]2CC[C@@H](CC(=O)O)OB2O)ccn1 [Compound 61, 2-((3R,6S)-3-(2-(2-aminopyridin-4-yl)acetamido)-2-hydroxy-1,2-oxaborinan-6-yl)acetic acid] | 1.63 to 6.51 µM | 1.63 to 6.51 µM | > 6.51 µM | – | – | > 6.51 µM | < 1.63 µM | – | – | – | – | – | – | – | – | < 1.63 µM | < 1.63 µM | –
8 | O=C(O)CC1CCC[C@H](NC(=O)Cc2cccs2)B(O)O1 (stereo partly drawn) [Compound 63, 2-((3R)-2-hydroxy-3-(2-(thiophen-2-yl)acetamido)-1,2-oxaborepan-7-yl)acetic acid] | 1.61 to 6.43 µM | 1.61 to 6.43 µM | 1.61 to 6.43 µM | – | – | > 6.43 µM | 1.61 to 6.43 µM | Z (key: X: MPC@4 of less than 2 μg/mL; Y: MPC@4 of 2 μg/mL to 10 μg/mL; Z: MPC@4 of greater than 10 μg/mL) | Y (key: X: MPC@4 of less than 2 μg/mL; Y: MPC@4 of 2 μg/mL to 10 μg/mL; Z: MPC@4 of greater than 10 μg/mL) | Z (key: X: MPC@4 of less than 2 μg/mL; Y: MPC@4 of 2 μg/mL to 10 μg/mL; Z: MPC@4 of greater than 10 μg/mL) | Y (key: X: MPC@4 of less than 2 μg/mL; Y: MPC@4 of 2 μg/mL to 10 μg/mL; Z: MPC@4 of greater than 10 μg/mL) | Y (key: X: MPC@4 of less than 2 μg/mL; Y: MPC@4 of 2 μg/mL to 10 μg/mL; Z: MPC@4 of greater than 10 μg/mL) | Z (key: X: MPC@4 of less than 2 μg/mL; Y: MPC@4 of 2 μg/mL to 10 μg/mL; Z: MPC@4 of greater than 10 μg/mL) | Z (key: X: MPC@4 of less than 2 μg/mL; Y: MPC@4 of 2 μg/mL to 10 μg/mL; Z: MPC@4 of greater than 10 μg/mL) | Z (key: X: MPC@4 of less than 2 μg/mL; Y: MPC@4 of 2 μg/mL to 10 μg/mL; Z: MPC@4 of greater than 10 μg/mL) | 1.61 to 6.43 µM | 1.61 to 6.43 µM | –
9 | CCOC(=O)C[C@@H]1CC[C@H](NC(=O)Cc2cccs2)B(O)O1 [Compound 65, ethyl 2-((3R,6S)-2-hydroxy-3-(2-(thiophen-2-yl)acetamido)-1,2-oxaborinan-6-yl)acetate] | 1.54 to 6.15 µM | 1.54 to 6.15 µM | > 6.15 µM | – | – | > 6.15 µM | > 6.15 µM | – | – | – | – | – | – | – | – | 1.54 to 6.15 µM | 1.54 to 6.15 µM | –
10 | O=C(O)C[C@@H]1CC[C@H](NC(=O)Cc2cc(F)cc(F)c2)B(O)O1 [Compound 66, 2-((3R,6S)-3-(2-(3,5-difluorophenyl)acetamido)-2-hydroxy-1,2-oxaborinan-6-yl)acetic acid] | 1.53 to 6.11 µM | < 1.53 µM | > 6.11 µM | – | – | > 6.11 µM | < 1.53 µM | – | – | – | – | – | – | – | – | < 1.53 µM | < 1.53 µM | –
